According to patent US12091385B2, “Pyridinylcyanoguanidine derivative and use thereof” (Rushi Biotech (Hangzhou) Co., Ltd, priority 2021, dated 2024):
pIC50: −log10 of the molar value.

Experiments:
Format in all cases: cell-based
[1] = test system: Human hepatoma cell HepG2; assay: CCK-8 cell proliferation assay, HepG2; details: HepG2 cells, 72 hrs with drug, CCK-8, OD 450 nm
Experimental: (§1) The effect of samples on the proliferation of human tumor cells in vitro was determined by CCK-8 cell proliferation assay.
(§2) The cells were assayed through a method including the following steps: • 1) The cells were digested, counted, and prepared into a cell suspension in a corresponding culture medium (Table 1) (5×10^4 cells/ml for CFPAC-1 and RPMI 8226, and 3.5×10^4 cells/ml for rest cells). The cell suspension was added to each well of a 96-well plate in 100 μl/well. • 2) Then the 96-well plate was incubated for 24 hrs in an incubator at 37° C. and 5% CO2. • 3) The drug was diluted with the culture medium to the required working concentration. 100 μl of the corresponding drug containing medium was added to each well.

[2] = test system: Human colon cancer cell HCT-116; assay: CCK-8 cell proliferation assay, HCT-116; details: HCT116 cells, 72 hrs with drug, CCK-8, OD 450 nm
Experimental: as §1, §2

[3] = test system: Human lung adenocarcinoma cell A549; assay: CCK-8 cell proliferation assay, A549; details: A549 cells, 72 hrs with drug, CCK-8, OD 450 nm
Experimental: as §1, §2

[4] = test system: Human esophageal cancer cell TE-1; assay: CCK-8 cell proliferation assay, TE-1; details: TE-1 cells, 72 hrs with drug, CCK-8, OD 450 nm
Experimental: as §1, §2

[5] = test system: Human gastric cancer cell MKN45; assay: CCK-8 cell proliferation assay, MKN45; details: MKN-45 cells, 72 hrs with drug, CCK-8, OD 450 nm
Experimental: as §1, §2

[6] = test system: Human multiple myeloma cell RPMI 8226; assay: CCK-8 cell proliferation assay, RPMI 8226; details: RPMI8226 cells, 72 hrs with drug, CCK-8, OD 450 nm
Experimental: as §1, §2

[7] = test system: Human pancreatic cancer cell CFPAC-1; assay: CCK-8 cell proliferation assay, CFPAC-1; details: CFPAC-1 cells, 72 hrs with drug, CCK-8, OD 450 nm
Experimental: as §1, §2

## N#CN=C(NCCCCCN1CCN(C(=O)C2CCCN2)CC1)Nc1ccncc1 (stereo not shown) [BSS-PC010, 2-cyano-1-(5-(1-(2-pyrrolidinylformyl)piperazine-4-yl)pentyl)-3-(4-pyridinyl)guanidine]
[1]
  pIC50: 7.21
[2]
  pIC50: 7.16
[3]
  pIC50: 7.17
[4]
  pIC50: 7.07
[5]
  pIC50: 7.28
[6]
  pIC50: 7.41
[7]
  pIC50: 7.48

## N#CN=C(NCCCCCCC1CCN(C(=O)C2CCCS2)C1)Nc1cccnc1 (stereo not shown) [BSS-PC063, 2-cyano-1-(6-(1-(2-tetrahydrothienylformyl)pyrrolidine-3-yl)hexyl)-3-(3-pyridinyl)guanidine]
[1]
  pIC50: 7.05
[2]
  pIC50: 6.96
[3]
  pIC50: 7.16
[4]
  pIC50: 7.08
[5]
  pIC50: 7.21
[6]
  pIC50: 7.40
[7]
  pIC50: 7.34

## N#CN=C(NCCCCCC1CCN(C(=O)C2CCCS2)C1)Nc1ccncc1 (stereo not shown) [BSS-PC034, 2-cyano-1-(5-(1-(2-tetrahydrothienylformyl)pyrrolidine-3-yl)pentyl)-3-(4-pyridinyl)guanidine]
[1]
  pIC50: 7.43
[2]
  pIC50: 7.57
[3]
  pIC50: 7.64
[4]
  pIC50: 7.41
[5]
  pIC50: 7.51
[6]
  pIC50: 7.74
[7]
  pIC50: 7.64

## N#CN=C(NCCCCCN1CCN(C(=O)c2ccco2)CC1)Nc1ccncc1 [BSS-PC007, 2-cyano-1-(5-((1-furoyl)piperazine-4-yl)pentyl)-3-(4-pyridinyl)guanidine]
[1]
  pIC50: 7.04
[2]
  pIC50: 7.26
[3]
  pIC50: 7.44
[4]
  pIC50: 7.02
[5]
  pIC50: 7.14
[6]
  pIC50: 7.54
[7]
  pIC50: 7.57

## N#CN=C(NCCCCCN1CCN(C(=O)C2CCCS2)CC1)Nc1ccncc1 (stereo not shown) [BSS-PC009, 2-cyano-1-(5-(1-(2-tetrahydrothienylformyl)piperazine-4-yl)pentyl)-3-(4-pyridinyl)guanidine]
[1]
  pIC50: 7.07
[2]
  pIC50: 7.04
[3]
  pIC50: 7.15
[4]
  pIC50: 7.09
[5]
  pIC50: 7.17
[6]
  pIC50: 7.37
[7]
  pIC50: 7.24

## N#CN=C(NCCCCCC1CCN(C(=O)c2[nH]ccc2F)C1)Nc1ccncc1 (stereo not shown) [BSS-PC049, 2-cyano-1-(5-(1-(3-fluoro-2-pyrrolylformyl)pyrrolidine-3-yl)pentyl)-3-(4-pyridinyl)guanidine]
[1]
  pIC50: 7.24
[2]
  pIC50: 7.26
[3]
  pIC50: 7.46
[4]
  pIC50: 7.13
[5]
  pIC50: 7.38
[6]
  pIC50: 7.54
[7]
  pIC50: 7.51

## N#CN=C(NCCCCCN1CCN(C(=O)c2cc3ccccc3[nH]2)CC1)Nc1ccncc1 [BSS-PC020, 2-cyano-1-(5-(1-(2-indolylformyl)piperazine-4-yl)pentyl)-3-(4-pyridinyl)guanidine]
[1]
  pIC50: 7.14
[2]
  pIC50: 7.07
[3]
  pIC50: 7.21
[4]
  pIC50: 7.03
[5]
  pIC50: 7.29
[6]
  pIC50: 7.46
[7]
  pIC50: 7.24

## COc1cccc(OC)c1C(=O)N1CCC(CCCCCCNC(=NC#N)Nc2ccncc2)C1 (stereo not shown) [BSS-PC055, 2-cyano-1-(6-(1-(2,6-dimethoxybenzoyl)pyrrolidine-3-yl)hexyl)-3-(4-pyridinyl)guanidine]
[1]
  pIC50: 7.06
[2]
  pIC50: 7.09
[3]
  pIC50: 7.30
[4]
  pIC50: 7.05
[5]
  pIC50: 7.21
[6]
  pIC50: 7.39
[7]
  pIC50: 7.33

## N#CN=C(NCCCCCN1CCN(C(=O)c2cccs2)CC1)Nc1cccnc1 [BSS-PC018, 2-cyano-1-(5-(1-(2-thienylformyl)piperazine-4-yl)pentyl)-3-(3-pyridinyl)guanidine]
[1]
  pIC50: 7.11
[2]
  pIC50: 7.02
[3]
  pIC50: 7.13
[4]
  pIC50: 7.07
[5]
  pIC50: 7.22
[6]
  pIC50: 7.55
[7]
  pIC50: 7.46

## N#CN=C(NCCCCCN1CCN(C(=O)c2cccs2)CC1)Nc1ccncc1 [BSS-PC004, 2-cyano-1-(5-(1-(2-thienylformyl)piperazine-4-yl)pentyl)-3-(4-pyridinyl)guanidine]
[1]
  pIC50: 7.09
[2]
  pIC50: 7.18
[3]
  pIC50: 7.46
[4]
  pIC50: 7.02
[5]
  pIC50: 7.37
[6]
  pIC50: 7.47
[7]
  pIC50: 7.60

## N#CN=C(NCCCCCC1CCN(C(=O)c2cccs2)C1)Nc1ccncc1 (stereo not shown) [BSS-PC029, 2-cyano-1-(5-(1-(2-thienylformyl)pyrrolidine-3-yl)pentyl)-3-(4-pyridinyl)guanidine]
[1]
  pIC50: 7.19
[2]
  pIC50: 7.28
[3]
  pIC50: 7.46
[4]
  pIC50: 7.18
[5]
  pIC50: 7.44
[6]
  pIC50: 7.72
[7]
  pIC50: 7.47

## COc1cccc(OC)c1C(=O)N1CCC(CCCCCNC(=NC#N)Nc2cccnc2)C1 (stereo not shown) [BSS-PC052, 2-cyano-1-(5-(1-(2,6-dimethoxybenzoyl)pyrrolidine-3-yl)pentyl)-3-(3-pyridinyl)guanidine]
[1]
  pIC50: 7.36
[2]
  pIC50: 7.24
[3]
  pIC50: 7.54
[4]
  pIC50: 7.41
[5]
  pIC50: 7.40
[6]
  pIC50: 7.62
[7]
  pIC50: 7.54

## N#CN=C(NCCCCCC1CCN(C(=O)c2ccco2)C1)Nc1ccncc1 (stereo not shown) [BSS-PC032, 2-cyano-1-(5-(1-(furoyl)pyrrolidine-3-yl)pentyl)-3-(4-pyridinyl)guanidine]
[1]
  pIC50: 7.17
[2]
  pIC50: 7.28
[3]
  pIC50: 7.59
[4]
  pIC50: 7.24
[5]
  pIC50: 7.21
[6]
  pIC50: 7.54
[7]
  pIC50: 7.60

## N#CN=C(NCCCCCN1CCN(C(=O)c2occc2F)CC1)Nc1ccncc1 [BSS-PC023, 2-cyano-1-(5-(1-(3-fluoro-2-furylformyl)piperazine-4-yl)pentyl)-3-(4-pyridinyl)guanidine]
[1]
  pIC50: 7.24
[2]
  pIC50: 7.28
[3]
  pIC50: 7.38
[4]
  pIC50: 7.37
[5]
  pIC50: 6.37
[6]
  pIC50: 7.52
[7]
  pIC50: 7.41

## N#CN=C(NCCCCCCC1CCN(C(=O)c2cccs2)C1)Nc1ccncc1 (stereo not shown) [BSS-PC053, 2-cyano-1-(6-(1-(2-thienylformyl)pyrrolidine-3-yl)hexyl)-3-(4-pyridinyl)guanidine]
[1]
  pIC50: 7.51
[2]
  pIC50: 7.37
[3]
  pIC50: 7.60
[4]
  pIC50: 7.52
[5]
  pIC50: 7.47
[6]
  pIC50: 7.66
[7]
  pIC50: 7.66

## N#CN=C(NCCCCCC1CCN(C(=O)c2cc3ccccc3[nH]2)C1)Nc1ccncc1 (stereo not shown) [BSS-PC045, 2-cyano-1-(5-(1-(2-indolylformyl)pyrrolidine-3-yl)pentyl)-3-(4-pyridinyl)guanidine]
[1]
  pIC50: 6.93
[2]
  pIC50: 7.07
[3]
  pIC50: 7.10
[4]
  pIC50: 7.05
[5]
  pIC50: 7.24
[6]
  pIC50: 7.28
[7]
  pIC50: 7.19

## N#CN=C(NCCCCCN1CCN(C(=O)c2ccco2)CC1)Nc1ccnc(F)c1 [BSS-PC013]
[1]
  pIC50: 7.03
[2]
  pIC50: 7.00
[3]
  pIC50: 7.32
[4]
  pIC50: 7.24
[5]
  pIC50: 7.14
[6]
  pIC50: 7.55
[7]
  pIC50: 7.42

## O=C(/C=C/c1cccnc1)NCCCCC1CCN(C(=O)c2ccccc2)CC1 [FK866, reference compound]
[1]
  pIC50: 7.00
[2]
  pIC50: 7.04
[3]
  pIC50: 7.43
[4]
  pIC50: 6.95
[5]
  pIC50: 7.41
[6]
  pIC50: 7.70
[7]
  pIC50: 7.43

## N#CN=C(NCCCCCCC1CCN(C(=O)c2ccc[nH]2)C1)Nc1ccncc1 (stereo not shown) [BSS-PC056, 2-cyano-1-(6-(1-(2-pyrrolylformyl)pyrrolidine-3-yl)hexyl)-3-(4-pyridinyl)guanidine]
[1]
  pIC50: 7.41
[2]
  pIC50: 7.14
[3]
  pIC50: 7.33
[4]
  pIC50: 7.38
[5]
  pIC50: 7.41
[6]
  pIC50: 7.48
[7]
  pIC50: 7.36
